In US8415469B2, “Compounds and methods for kinase modulation, and indications therefor” (Plexxikon Inc., priority 2005, dated 2013):

Assays:
Type in all cases: biochemical
B-Raf V600E = target: T1, B-Raf V600E (Homo sapiens, UniProt P15056, V600E); assay: AlphaScreen kinase assay, B-Raf V600E; details: read-out: IC50, activity toward kinase B-Raf V600E
T1 construct: P4254. pFastBacBD-CDC37 BRAF D437-K722-X, V600E; His6 with pFastBac HT leader (TEV site) (N); made in house; host or cells: Sf9 (baculovirus; chaperone CDC37 co-expressed)
T1 sequence (P15056 with tags, fused parts or gaps V600E): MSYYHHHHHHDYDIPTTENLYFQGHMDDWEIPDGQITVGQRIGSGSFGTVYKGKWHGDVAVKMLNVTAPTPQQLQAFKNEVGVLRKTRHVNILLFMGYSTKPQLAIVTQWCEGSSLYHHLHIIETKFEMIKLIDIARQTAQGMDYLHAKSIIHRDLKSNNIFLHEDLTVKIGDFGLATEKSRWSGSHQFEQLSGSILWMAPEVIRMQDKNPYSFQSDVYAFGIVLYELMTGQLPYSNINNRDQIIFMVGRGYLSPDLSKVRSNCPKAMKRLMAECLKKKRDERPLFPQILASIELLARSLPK

B-Raf = target: T2, B-Raf (Homo sapiens, UniProt P15056); assay: AlphaScreen kinase assay, B-Raf; details: read-out: IC50, activity toward kinase B-Raf
T2 construct: purchased Upstate Biotechnology
T2 sequence (P15056 whole entry): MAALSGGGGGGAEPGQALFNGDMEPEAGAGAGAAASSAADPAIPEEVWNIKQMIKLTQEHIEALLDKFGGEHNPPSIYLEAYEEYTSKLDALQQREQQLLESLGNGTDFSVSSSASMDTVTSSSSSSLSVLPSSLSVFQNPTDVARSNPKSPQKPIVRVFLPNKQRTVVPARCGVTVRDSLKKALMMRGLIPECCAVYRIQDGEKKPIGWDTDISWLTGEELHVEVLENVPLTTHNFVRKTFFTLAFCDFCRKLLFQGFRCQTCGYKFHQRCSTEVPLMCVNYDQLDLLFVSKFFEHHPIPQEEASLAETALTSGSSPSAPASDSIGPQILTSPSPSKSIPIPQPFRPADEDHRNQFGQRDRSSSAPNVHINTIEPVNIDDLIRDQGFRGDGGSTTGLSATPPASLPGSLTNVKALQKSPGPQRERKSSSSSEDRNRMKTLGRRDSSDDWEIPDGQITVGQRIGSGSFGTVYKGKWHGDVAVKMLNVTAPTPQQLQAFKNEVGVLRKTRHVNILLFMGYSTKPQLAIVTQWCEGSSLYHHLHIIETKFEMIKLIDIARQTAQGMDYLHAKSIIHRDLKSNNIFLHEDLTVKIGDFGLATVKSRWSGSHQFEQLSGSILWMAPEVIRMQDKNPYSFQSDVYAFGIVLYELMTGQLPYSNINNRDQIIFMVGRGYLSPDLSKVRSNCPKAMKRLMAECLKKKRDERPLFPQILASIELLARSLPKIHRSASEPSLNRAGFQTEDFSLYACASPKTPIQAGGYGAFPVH

FGFR1 = target: T3, FGFR1 (Homo sapiens, UniProt P11362, C488A/C584S); assay: AlphaScreen kinase assay, FGFR1; details: read-out: IC50, activity toward kinase FGFR
T3 construct: P1351.pET N6 BI-PTP FGFR A458-E765-X C488A, C584S; made in house; host or cells: E. coli (PTP1B co-expressed)
T3 sequence (P11362 458-765 C488A/C584S): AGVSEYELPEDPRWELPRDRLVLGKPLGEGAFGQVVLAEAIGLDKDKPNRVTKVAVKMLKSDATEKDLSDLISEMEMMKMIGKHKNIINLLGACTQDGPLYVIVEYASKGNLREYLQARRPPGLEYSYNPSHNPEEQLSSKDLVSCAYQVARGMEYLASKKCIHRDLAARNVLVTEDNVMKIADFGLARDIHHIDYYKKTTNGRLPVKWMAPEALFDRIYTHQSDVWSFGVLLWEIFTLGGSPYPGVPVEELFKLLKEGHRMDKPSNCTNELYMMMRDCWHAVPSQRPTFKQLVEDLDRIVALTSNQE

Fms = target: T4, Fms (Homo sapiens, UniProt P07333); assay: AlphaScreen kinase assay, Fms; details: read-out: IC50, activity toward kinase Fms
T4 construct: purchased Upstate Biotechnology
T4 sequence (P07333 20-972): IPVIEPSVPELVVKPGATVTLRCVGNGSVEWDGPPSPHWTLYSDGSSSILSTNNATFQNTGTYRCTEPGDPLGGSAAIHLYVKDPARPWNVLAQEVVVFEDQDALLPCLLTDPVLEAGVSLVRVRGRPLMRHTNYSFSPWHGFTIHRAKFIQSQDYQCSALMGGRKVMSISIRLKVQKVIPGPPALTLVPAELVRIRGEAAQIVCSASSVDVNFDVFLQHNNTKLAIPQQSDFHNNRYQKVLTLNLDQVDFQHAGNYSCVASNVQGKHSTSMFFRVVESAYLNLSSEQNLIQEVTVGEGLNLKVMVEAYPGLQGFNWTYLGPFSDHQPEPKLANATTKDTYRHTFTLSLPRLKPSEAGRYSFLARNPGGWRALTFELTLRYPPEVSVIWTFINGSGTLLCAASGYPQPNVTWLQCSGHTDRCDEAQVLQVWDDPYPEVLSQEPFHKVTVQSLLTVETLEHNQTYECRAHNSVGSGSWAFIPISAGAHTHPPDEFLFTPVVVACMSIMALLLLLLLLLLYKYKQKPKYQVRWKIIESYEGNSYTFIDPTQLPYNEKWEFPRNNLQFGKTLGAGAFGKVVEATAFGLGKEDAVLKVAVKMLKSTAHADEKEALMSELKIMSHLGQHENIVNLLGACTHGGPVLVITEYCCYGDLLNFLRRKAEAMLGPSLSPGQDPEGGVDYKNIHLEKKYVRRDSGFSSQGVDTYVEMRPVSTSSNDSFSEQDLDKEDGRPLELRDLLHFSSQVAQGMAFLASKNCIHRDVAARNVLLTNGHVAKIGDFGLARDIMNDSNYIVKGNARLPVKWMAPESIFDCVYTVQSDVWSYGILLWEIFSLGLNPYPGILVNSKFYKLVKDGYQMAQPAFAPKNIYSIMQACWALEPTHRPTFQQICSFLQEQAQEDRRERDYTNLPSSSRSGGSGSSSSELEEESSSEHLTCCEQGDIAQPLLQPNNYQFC

Kit = target: T5, Kit (Homo sapiens, UniProt P10721); assay: AlphaScreen kinase assay, Kit; details: read-out: IC50, activity toward kinase Kit
T5 construct: P1332.N6 BI PTP KIT M552-K948-X COD; His6 (N); made in house; host or cells: E. coli (PTP1B co-expressed)
T5 sequence (P10721 with tags, fused parts or gaps): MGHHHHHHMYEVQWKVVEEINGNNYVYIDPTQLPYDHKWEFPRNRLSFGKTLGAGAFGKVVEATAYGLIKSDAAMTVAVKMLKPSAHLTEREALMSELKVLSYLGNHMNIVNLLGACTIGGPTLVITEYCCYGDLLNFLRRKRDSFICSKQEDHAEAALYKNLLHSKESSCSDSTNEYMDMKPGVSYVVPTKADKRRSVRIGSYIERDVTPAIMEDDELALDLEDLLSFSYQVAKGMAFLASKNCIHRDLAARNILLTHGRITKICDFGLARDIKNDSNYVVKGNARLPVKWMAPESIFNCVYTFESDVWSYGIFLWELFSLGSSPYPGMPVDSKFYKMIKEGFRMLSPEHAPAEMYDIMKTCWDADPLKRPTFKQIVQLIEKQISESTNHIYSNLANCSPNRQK

Row | IC50 (B-Raf V600E) | IC50 (B-Raf) | IC50 (FGFR1) | IC50 (Fms) | IC50 (Kit) | SMILES
1 | ≤ 10 µM | ≤ 10 µM | – | – | – | c1ccc(CCc2c[nH]c3ncccc23)cc1 [Compound P-0200]
2 | – | – | ≤ 10 µM | ≤ 10 µM | ≤ 10 µM | Clc1ccc(Cc2c[nH]c3ncccc23)cc1 [Compound P-0233]
3 | ≤ 10 µM | ≤ 10 µM | – | – | – | CC(C)(C)OC(=O)N(Cc1ccc(Cl)cc1)c1ccc(C(O)c2c[nH]c3ncc(-c4cccnc4)cc23)cn1 (stereo not drawn) [Compound P-0414]
4 | ≤ 10 µM | – | ≤ 10 µM | ≤ 10 µM | – | Clc1ccc(CNc2ccc(Cc3c[nH]c4ncc(Br)cc34)cn2)cc1 [Compound P-0420]
5 | – | ≤ 10 µM | ≤ 10 µM | – | ≤ 10 µM | COc1cccc(Cc2c[nH]c3ncc(Br)cc23)c1 [Compound P-0556]
6 | – | – | ≤ 10 µM | ≤ 10 µM | ≤ 10 µM | COc1ccc(Cc2c[nH]c3ncc(-c4ccsc4)cc23)cc1OC [Compound P-0563]
7 | – | – | ≤ 10 µM | ≤ 10 µM | ≤ 10 µM | CSc1nccc(-c2ccc(S(=O)(=O)NCc3c[nH]c4ncccc34)s2)n1 [Compound P-0854]
8 | ≤ 10 µM | – | ≤ 10 µM | ≤ 10 µM | – | Cc1nc(NCc2ccc(Cl)cc2)ccc1Cc1c[nH]c2ncccc12 [Compound P-0927]
9 | – | ≤ 10 µM | – | – | – | COC(=O)c1cccc(Nc2ccnc3[nH]ccc23)c1 [Compound P-0932]
10 | ≤ 10 µM | ≤ 10 µM | – | – | – | Oc1cccc(Nc2ccnc3[nH]ccc23)c1 [Compound P-0980]
11 | ≤ 10 µM | ≤ 10 µM | – | – | – | CCCS(=O)(=O)Nc1ccc(F)c(Cc2c[nH]c3ncc(N4CCC(C)CC4)cc23)c1F [Compound P-0984, Propane-1-sulfonic acid {2,4-difluoro-3-[5-(4-methyl-piperidin-1-yl)-1H-pyrrolo[2,3-b]pyridin-3-ylmethyl]-phenyl}-amide]
12 | – | ≤ 10 µM | – | – | – | OC(c1c(F)ccc(N(Cc2ccccc2)Cc2ccccc2)c1F)c1c[nH]c2ncc(-c3cccnc3)cc12 (stereo not drawn) [Compound P-1080]
13 | ≤ 10 µM | ≤ 10 µM | ≤ 10 µM | – | – | CCCS(=O)(=O)Nc1cccc(C(=O)c2c[nH]c3ncc(Br)cc23)c1 [Compound P-1116, propane-1-sulfonic acid [3-(5-bromo-1H-pyrrolo[2,3-b]pyridin-3-carbonyl)-phenyl]-amide]
14 | – | ≤ 10 µM | – | – | ≤ 10 µM | O=C(c1c(F)ccc(NS(=O)(=O)c2ccsc2)c1F)c1c[nH]c2ncc(Cl)cc12 [Compound P-1268, Thiophene-3-sulfonic acid [3-(5-chloro-1H-pyrrolo[2,3-b]pyridin-3-carbonyl)-2,4-difluoro-phenyl]-amide]
15 | ≤ 10 µM | ≤ 10 µM | ≤ 10 µM | – | – | CCCS(=O)(=O)Nc1ccc(F)c(C(=O)c2c[nH]c3ncc(CCC(=O)O)cc23)c1F [Compound P-1270, 3-3-[2,6-difluoro-3-(propane-1-sulfonylamino)-benzoyl]-1H-pyrrolo[2,3-b]pyridin-5-yl-propionic acid]
16 | – | – | ≤ 10 µM | ≤ 10 µM | – | COc1cccc(Cc2c[nH]c3ncc(-c4cccc(OC(F)(F)F)c4)cc23)c1F [Compound P-1328, 3-(2-Fluoro-3-methoxy-benzyl)-5-(3-trifluoromethoxy-phenyl)-1H-pyrrolo[2,3-b]pyridine]
17 | – | – | ≤ 10 µM | ≤ 10 µM | – | COc1cccc(C(=O)c2c[nH]c3ncc(-c4cccc(Cl)c4)cc23)c1F [Compound P-1332, [5-(3-Chloro-phenyl)-1H-pyrrolo[2,3-b]pyridin-3-yl]-(2-fluoro-3-methoxy-phenyl)-methanone]
18 | – | – | ≤ 10 µM | ≤ 10 µM | – | COc1cccc(C(=O)c2c[nH]c3ncc(-c4ccc(Cl)cc4)cc23)c1F [Compound P-1333, [5-(4-Chloro-phenyl)-1H-pyrrolo[2,3-b]pyridin-3-yl]-(2-fluoro-3-methoxy-phenyl)-methanone]
19 | – | – | ≤ 10 µM | ≤ 10 µM | – | COc1cccc(C(=O)c2c[nH]c3ncc(-c4cc(F)cc(F)c4)cc23)c1F [Compound P-1334, [5-(3,5-Difluoro-phenyl)-1H-pyrrolo[2,3-b]pyridin-3-yl]-(2-fluoro-3-methoxy-phenyl)-methanone]
20 | – | – | ≤ 10 µM | ≤ 10 µM | – | COc1cccc(C(=O)c2c[nH]c3ncc(-c4ccc(C#N)cc4)cc23)c1F [Compound P-1335, 4-[3-(2-Fluoro-3-methoxy-benzoyl)-1H-pyrrolo[2,3-b]pyridin-5-yl]-benzonitrile]

Row | IC50 (B-Raf V600E) | IC50 (B-Raf) | IC50 (FGFR1) | IC50 (Fms) | IC50 (Kit) | SMILES
21 | – | – | ≤ 10 µM | ≤ 10 µM | – | COc1cc(C(OC)c2c[nH]c3ncccc23)ccc1OCc1ccc(Cl)cc1 (stereo not drawn) [Compound P-1340]
22 | – | – | ≤ 10 µM | ≤ 10 µM | – | Fc1ccccc1Cc1c[nH]c2ncc(Br)cc12 [Compound P-1342]
23 | – | – | ≤ 10 µM | ≤ 10 µM | – | COc1cccc(C(=O)c2c[nH]c3ncc(-c4cccc(OC(F)(F)F)c4)cc23)c1F [Compound P-1344, (2-Fluoro-3-methoxy-phenyl)-[5-(3-trifluoromethoxy-phenyl)-1H-pyrrolo[2,3-b]pyridin-3-yl]-methanone]
24 | ≤ 10 µM | – | ≤ 10 µM | ≤ 10 µM | ≤ 10 µM | CCCC(=O)Nc1ccc(F)c(Cc2c[nH]c3ncc(OC)cc23)c1F [Compound P-1369]
25 | ≤ 10 µM | – | ≤ 10 µM | ≤ 10 µM | ≤ 10 µM | O=C(c1cccc(OC(F)F)c1)c1c[nH]c2ncc(-c3ccccc3)cc12 [Compound P-1409, (3-Difluoromethoxy-phenyl)-(5-phenyl-1H-pyrrolo[2,3-b]pyridin-3-yl)-methanone]
26 | – | – | – | ≤ 10 µM | ≤ 10 µM | O=C(c1cccc(C(F)(F)F)c1)c1c[nH]c2ncc(-c3cccnc3)cc12 [Compound P-1410, (5-Pyridin-3-yl-1H-pyrrolo[2,3-b]pyridin-3-yl)-(3-trifluoromethyl-phenyl)-methanone]
27 | – | ≤ 10 µM | – | – | – | CCCS(=O)(=O)Nc1ccc(F)c(C(=O)c2c[nH]c3ncc(Br)cc23)c1 [Compound P-1431]
28 | – | – | – | ≤ 10 µM | ≤ 10 µM | Clc1cccc(Cl)c1Cc1c[nH]c2ncccc12 [Compound P-1483, 3-(2,6-Dichloro-benzyl)-1H-pyrrolo[2,3-b]pyridine]
29 | – | – | – | ≤ 10 µM | ≤ 10 µM | COc1ccc(Nc2c[nH]c3ncccc23)cc1 [Compound P-1488, (4-Methoxy-phenyl)-(1H-pyrrolo[2,3-b]pyridin-3-yl)-amine]
30 | – | – | – | ≤ 10 µM | ≤ 10 µM | FC(F)(F)Oc1cccc(Nc2c[nH]c3ncccc23)c1 [Compound P-1493, (1H-Pyrrolo[2,3-b]pyridin-3-yl)-(3-trifluoromethoxy-phenyl)-amine]
31 | – | – | – | ≤ 10 µM | ≤ 10 µM | CS(=O)(=O)Nc1cccc(Nc2c[nH]c3ncccc23)c1 [Compound P-1498, N-[3-(1H-Pyrrolo[2,3-b]pyridin-3-ylamino)-phenyl]-methanesulfonamide]
32 | – | – | – | ≤ 10 µM | ≤ 10 µM | c1ccc(Oc2ccccc2Nc2c[nH]c3ncccc23)cc1 [Compound P-1501, (2-Phenoxy-phenyl)-(1H-pyrrolo[2,3-b]pyridin-3-yl)-amine]
33 | – | – | – | ≤ 10 µM | ≤ 10 µM | COc1cc(Nc2c[nH]c3ncccc23)cc(OC)c1 [Compound P-1503, (3,5-Dimethoxy-phenyl)-(1H-pyrrolo[2,3-b]pyridin-3-yl)-amine]
34 | – | – | ≤ 10 µM | ≤ 10 µM | ≤ 10 µM | CS(=O)(=O)Nc1cccc(-c2cnc3[nH]cc(C(=O)c4cc(OC(F)F)cc(OC(F)F)c4)c3c2)c1 [Compound P-1522, N-{3-[3-(3,5-Bis-difluoromethoxy-benzoyl)-1H-pyrrolo[2,3-b]pyridin-5-yl]-phenyl}-methanesulfonamide]
35 | – | – | ≤ 10 µM | ≤ 10 µM | ≤ 10 µM | OC(c1c(F)ccc(OC(F)F)c1F)c1c[nH]c2ncc(Br)cc12 (stereo not drawn) [Compound P-1525]
36 | ≤ 10 µM | ≤ 10 µM | ≤ 10 µM | – | – | O=S(=O)(Nc1ccc(F)c(C(O)c2c[nH]c3ncc(Cl)cc23)c1F)c1ccc(C(F)(F)F)cc1 (stereo not drawn) [Compound P-1539]
37 | ≤ 10 µM | ≤ 10 µM | – | – | – | O=C(Nc1cccc(C(=O)c2c[nH]c3ncc(-c4ccc(F)cc4)cc23)c1)Nc1cc(C(F)(F)F)ccc1Cl [Compound P-1752, 1-(2-Chloro-5-trifluoromethyl-phenyl)-3-{3-[5-(4-fluoro-phenyl)-1H-pyrrolo[2,3-b]pyridine-3-carbonyl]-phenyl}-urea]
38 | ≤ 10 µM | ≤ 10 µM | – | – | – | Cc1ccc(S(=O)(=O)Nc2ccc(F)c(C(=O)c3c[nH]c4ncc(Cl)cc34)c2F)cc1F [Compound P-1823, N-[3-(5-Chloro-1H-pyrrolo[2,3-b]pyridine-3-carbonyl)-2,4-difluoro-phenyl]-3-fluoro-4-methyl-benzenesulfonamide]
39 | ≤ 10 µM | ≤ 10 µM | – | – | – | O=C(c1c(F)ccc(NS(=O)(=O)c2cc(F)cc(F)c2)c1F)c1c[nH]c2ncc(Cl)cc12 [Compound P-1841, N-[3-(5-chloro-1H-pyrrolo[2,3-b]pyridine-3-carbonyl)-2,4-difluoro-phenyl]-3,5-difluorobenzenesulfonamide]
40 | ≤ 10 µM | ≤ 10 µM | – | – | ≤ 10 µM | O=C(c1c(F)ccc(NS(=O)(=O)c2ccc(F)cc2)c1F)c1c[nH]c2ncccc12 [Compound P-1865, N-[2,4-Difluoro-3-(1H-pyrrolo[2,3-b]pyridine-3-carbonyl)-phenyl]-4-fluoro-benzenesulfonamide]
